# Experiments:
# [1] = target: T1, Aromatase (Homo sapiens, UniProt P11511); experiment: Binding affinity for Cytochrome P450 19A1
# T1 sequence (P11511 whole entry): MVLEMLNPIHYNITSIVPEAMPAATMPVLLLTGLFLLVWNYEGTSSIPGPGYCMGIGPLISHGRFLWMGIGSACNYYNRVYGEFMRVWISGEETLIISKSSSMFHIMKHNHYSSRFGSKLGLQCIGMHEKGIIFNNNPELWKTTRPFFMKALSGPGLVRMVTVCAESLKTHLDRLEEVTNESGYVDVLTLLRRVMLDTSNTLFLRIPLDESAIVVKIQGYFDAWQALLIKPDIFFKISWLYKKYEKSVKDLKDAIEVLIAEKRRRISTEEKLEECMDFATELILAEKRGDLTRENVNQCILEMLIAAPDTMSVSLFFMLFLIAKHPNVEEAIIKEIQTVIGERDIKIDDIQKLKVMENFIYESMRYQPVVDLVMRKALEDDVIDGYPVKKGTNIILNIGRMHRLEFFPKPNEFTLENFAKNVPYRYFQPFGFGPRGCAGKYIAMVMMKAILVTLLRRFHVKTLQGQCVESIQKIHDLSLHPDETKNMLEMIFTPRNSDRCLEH
# [2] = tested on: Cricetinae gen. sp.; experiment: Effect on total serum cholesterol in male hamsters at a dose of 10 mg/kg orally administered for 14 days; format: functional, Cricetulus griseus; settings: route oral
# [3] = tested on: Cricetinae gen. sp.; experiment: Percentage lowering of the total serum cholesterol in male hamsters at a dose of 100 […] orally administered for 3 days; format: functional, Cricetulus griseus
# [4] = tested on: Cricetinae gen. sp.; experiment: Percentage lowering of the total serum cholesterol in male hamsters at a dose of 25 mg/dL orally administered for 14 days; format: functional, Cricetulus griseus
# [5] = tested on: Cricetinae gen. sp.; experiment: Percentage lowering of the total serum cholesterol in male hamsters at a dose of 30 mg/dL orally administered for 3 days; format: functional, Cricetulus griseus
# [6] = tested on: Cricetinae gen. sp.; experiment: Percentage lowering of the total serum cholesterol in male hamsters at a dose of 5 mg/dL orally administered for 14 days; format: functional, Cricetulus griseus
# [7] = tested on: Cricetinae gen. sp.; experiment: Effect on total serum cholesterol in male hamsters at a dose of 10 mg/kg orally administered for 3 days; format: functional, Cricetulus griseus; settings: route oral
# [8] = tested on: Cricetinae gen. sp.; experiment: Effect on total serum cholesterol in male hamsters at a dose of 100 mg/kg orally administered for 3 days; format: functional, Cricetulus griseus; settings: route oral
# [9] = tested on: Cricetinae gen. sp.; experiment: Effect on total serum cholesterol in male hamsters at a dose of 25 mg/kg orally administered for 14 days; format: functional, Cricetulus griseus; settings: route oral
# [10] = tested on: Cricetinae gen. sp.; experiment: Effect on total serum cholesterol in male hamsters at a dose of 30 mg/kg orally administered for 3 days; format: functional, Cricetulus griseus; settings: route oral
# [11] = tested on: Cricetinae gen. sp.; experiment: Effect on total serum cholesterol in male hamsters at a dose of 5 mg/kg orally administered for 14 days; format: functional, Cricetulus griseus; settings: route oral
# [12] = tested on: Cricetinae gen. sp.; experiment: Effect on total serum cholesterol in male hamsters at a dose of 50 mg/kg orally administered for 14 days; format: functional, Cricetulus griseus; settings: route oral
# [13] = tested on: Cricetinae gen. sp.; experiment: Percentage lowering of the total serum cholesterol in male hamsters at a dose of 50 mg/dL orally administered for 14 days; format: functional, Cricetulus griseus
# [14] = tested on: Cricetinae gen. sp.; experiment: Percentage lowering of the total serum cholesterol in male hamsters at a dose of 10 […] orally administered for 14 days; format: functional, Cricetulus griseus
# [15] = tested on: Cricetinae gen. sp.; experiment: Percentage lowering of the total serum cholesterol in male hamsters at a dose of 10 […] orally administered for 3 days; format: functional, Cricetulus griseus
# [16] = Inhibition of lanosterol 14-alpha-demethylation in hepatic microsomes from hamster; format: functional, Cricetulus griseus, Liver
# [17] = Inhibition of lanosterol 14-alpha-demethylation in hepatic microsomes from human; format: functional, Liver
# [18] = Inhibition of lanosterol 14-alpha-demethylation in hepatic microsomes from rat; format: functional, Liver
# [19] = species: Homo sapiens; experiment: Inhibition of cellular cholesterol biosynthesis using human fibroblasts in tissue culture; format: functional, organism-based
# [20] = target: T2, Cytochrome P450 11B1, mitochondrial (Homo sapiens, UniProt P15538); experiment: Binding affinity for corticoid 11-beta-hydroxylase
# T2 sequence (P15538 whole entry): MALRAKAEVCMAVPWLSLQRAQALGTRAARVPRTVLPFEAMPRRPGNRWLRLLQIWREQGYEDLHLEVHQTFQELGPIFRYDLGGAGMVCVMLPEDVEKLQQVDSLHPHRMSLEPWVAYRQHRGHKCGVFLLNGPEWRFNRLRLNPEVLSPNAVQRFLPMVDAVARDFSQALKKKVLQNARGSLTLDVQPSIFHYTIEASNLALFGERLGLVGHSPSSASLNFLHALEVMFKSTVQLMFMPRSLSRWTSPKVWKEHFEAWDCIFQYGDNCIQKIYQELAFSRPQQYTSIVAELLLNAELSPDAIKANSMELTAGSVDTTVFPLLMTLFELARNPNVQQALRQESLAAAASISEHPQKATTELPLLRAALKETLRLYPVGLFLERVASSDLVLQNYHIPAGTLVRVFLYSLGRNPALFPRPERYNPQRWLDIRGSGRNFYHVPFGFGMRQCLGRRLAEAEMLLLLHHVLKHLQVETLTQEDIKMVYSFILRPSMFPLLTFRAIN
# [21] = target: T3, Steroid 17-alpha-hydroxylase/17,20 lyase (Homo sapiens, UniProt P05093); experiment: Binding affinity for progesterone 17-alpha,20-lyase
# T3 sequence (P05093 whole entry): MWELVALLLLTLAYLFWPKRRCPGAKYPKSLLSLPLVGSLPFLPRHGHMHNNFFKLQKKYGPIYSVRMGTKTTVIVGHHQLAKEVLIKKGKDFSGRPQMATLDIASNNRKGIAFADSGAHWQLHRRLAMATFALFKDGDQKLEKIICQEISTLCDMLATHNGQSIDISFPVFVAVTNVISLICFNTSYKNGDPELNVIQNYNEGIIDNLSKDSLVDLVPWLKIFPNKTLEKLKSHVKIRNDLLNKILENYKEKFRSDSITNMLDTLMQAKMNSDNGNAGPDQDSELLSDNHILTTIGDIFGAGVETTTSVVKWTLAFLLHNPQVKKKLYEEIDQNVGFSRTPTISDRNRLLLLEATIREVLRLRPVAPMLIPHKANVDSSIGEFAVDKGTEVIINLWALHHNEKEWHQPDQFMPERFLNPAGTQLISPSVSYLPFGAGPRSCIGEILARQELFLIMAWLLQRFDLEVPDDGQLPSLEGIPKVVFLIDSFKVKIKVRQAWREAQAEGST
# [22] = target: Cytochrome P450 3A4 (Homo sapiens, UniProt P08684); experiment: Binding affinity for progesterone 6-beta-hydroxylase of hepatic microsomes; format: ADME
# [23] = target: T3, Steroid 17-alpha-hydroxylase/17,20 lyase; experiment: Binding affinity for […] 17-alpha-hydroxylase
# [24] = tested on: Cricetinae gen. sp.; experiment: Percentage lowering of the total serum cholesterol in male hamsters at a dose of 75 mg/dL orally administered for 14 days; format: functional, Cricetulus griseus
# [25] = tested on: Cricetinae gen. sp.; experiment: Effect on total serum cholesterol in male hamsters at a dose of 100 mg/kg orally administered for 14 days; format: functional, Cricetulus griseus; settings: route oral
# [26] = tested on: Cricetinae gen. sp.; experiment: Effect on total serum cholesterol in male hamsters at a dose of 75 mg/kg orally administered for 14 days; format: functional, Cricetulus griseus; settings: route oral
# [27] = tested on: Cricetinae gen. sp.; experiment: Percentage lowering of the total serum cholesterol in male hamsters at a dose of 100 […] orally administered for 14 days; format: functional, Cricetulus griseus
# [28] = tested on: Cricetinae gen. sp.; experiment: Effect on total serum cholesterol in male hamsters at a dose of 200 mg/kg orally administered for 14 days; format: functional, Cricetulus griseus; settings: route oral
# [29] = tested on: Cricetinae gen. sp.; experiment: Percentage lowering of the total serum cholesterol in male hamsters at a dose of 200 […] orally administered for 14 days; format: functional, Cricetulus griseus
# [30] = tested on: Cricetinae gen. sp.; experiment: Percentage increase of the total serum cholesterol in male hamsters at a dose of 25 […] orally administered for 14 days; format: functional, Cricetulus griseus
# [31] = target: T4, Lanosterol 14-alpha demethylase (Rattus norvegicus, UniProt Q64654); experiment: Inhibition of lanosterol 14-alpha-demethylase of rat hepatic microsomes
# T4 sequence (Q64654 whole entry): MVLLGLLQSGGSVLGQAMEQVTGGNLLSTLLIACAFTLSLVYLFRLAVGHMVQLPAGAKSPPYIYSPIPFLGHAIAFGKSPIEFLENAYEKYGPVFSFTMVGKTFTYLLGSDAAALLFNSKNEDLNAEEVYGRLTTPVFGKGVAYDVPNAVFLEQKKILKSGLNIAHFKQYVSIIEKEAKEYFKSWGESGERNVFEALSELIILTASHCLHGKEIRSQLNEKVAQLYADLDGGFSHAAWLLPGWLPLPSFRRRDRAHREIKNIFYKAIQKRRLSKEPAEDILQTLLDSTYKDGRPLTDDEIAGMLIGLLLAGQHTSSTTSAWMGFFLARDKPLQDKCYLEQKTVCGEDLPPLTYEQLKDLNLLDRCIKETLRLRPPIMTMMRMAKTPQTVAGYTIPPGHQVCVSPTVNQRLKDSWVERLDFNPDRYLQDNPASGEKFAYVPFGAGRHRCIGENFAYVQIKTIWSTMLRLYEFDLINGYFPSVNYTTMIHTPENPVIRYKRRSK
# Chain of Cytochrome P450 3A4 (P08684 whole entry): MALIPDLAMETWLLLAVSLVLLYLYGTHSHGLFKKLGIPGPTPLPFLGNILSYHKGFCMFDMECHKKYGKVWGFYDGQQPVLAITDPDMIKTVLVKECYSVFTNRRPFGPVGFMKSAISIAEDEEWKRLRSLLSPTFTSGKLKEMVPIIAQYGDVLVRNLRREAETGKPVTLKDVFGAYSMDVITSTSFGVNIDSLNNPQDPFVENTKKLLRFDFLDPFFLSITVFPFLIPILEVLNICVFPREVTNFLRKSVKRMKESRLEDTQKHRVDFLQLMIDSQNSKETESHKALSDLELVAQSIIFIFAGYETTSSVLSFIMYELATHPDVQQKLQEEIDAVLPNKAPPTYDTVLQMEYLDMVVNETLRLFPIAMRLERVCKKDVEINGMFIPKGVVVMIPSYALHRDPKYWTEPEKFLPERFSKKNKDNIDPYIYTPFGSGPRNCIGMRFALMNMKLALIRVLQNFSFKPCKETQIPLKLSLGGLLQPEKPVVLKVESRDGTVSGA
smiles,measurement,setting,value
Nc1ccc(SC[C@@H]2CO[C@](CCc3ccc(Cl)cc3)(Cn3ccnc3)O2)cc1 [AZALANSTAT],Ki,[1],7.6 nM
same,TC,[2],104 mg/dL
same,Lowering,[3],62%
same,Lowering,[4],30%
same,Lowering,[5],36%
same,Lowering,[6],2%
same,TC,[7],85.1 mg/dL
same,TC,[8],41.8 mg/dL
same,TC,[9],82.9 mg/dL
same,TC,[10],71 mg/dL
same,TC,[11],115.5 mg/dL
same,TC,[12],74.7 mg/dL
same,Lowering,[13],37%
same,Lowering,[14],12%
same,Lowering,[15],23%
same,Ki,[16],1.4 nM
same,Ki,[17],0.79 nM
same,Ki,[18],2.5 nM
same,IC50,[19],0.09 nM
same,Ki,[20],35 nM
same,Ki,[21],447 nM
same,Ki,[22],28 nM
same,Ki,[23],1620 nM
Cl.Cl.Cl.Nc1ccc(SC[C@@H]2CO[C@](CCc3ccc(Cl)cc3)(Cn3ccnc3)O2)cc1,Lowering,[4],8%
same,Lowering,[24],40%
same,TC,[25],65.6 mg/dL
same,TC,[9],117.4 mg/dL
same,TC,[12],88.9 mg/dL
same,TC,[26],76 mg/dL
same,Lowering,[27],49%
same,Lowering,[13],30%
CC(=O)N1CCN(c2ccc(OCC3COC(Cn4ccnc4)(c4ccc(Cl)cc4Cl)O3)cc2)CC1 (stereo unspecified) [KETOCONAZOLE],TC,[25],105 mg/dL
same,TC,[28],83.1 mg/dL
same,TC,[9],125.2 mg/dL
same,TC,[12],111.4 mg/dL
same,Lowering,[27],11%
same,Lowering,[29],30%
same,Lowering,[13],6%
same,Increase,[30],6%
same,IC50,[19],37 nM
same,Ki,[31],65 nM

# Reference: ChEMBL document CHEMBL1127068, “Selective inhibition of mammalian lanosterol 14 alpha-demethylase: a possible strategy for cholesterol lowering” (J Med Chem, 1993)
